Results taken from US5001154A, “Fervescence composition” (K.K. Ueno Seiyaku Oyo Kenkyujo, priority 1987, dated 1991).

Assays:
[1] = in vivo; cited from earlier work
[2] = fervescence activity by intravenous injection (rising of body temperature), 1 mg/kg; assay type: in vivo, Wister male rats; settings: 1 mg/kg intravenous, urethane-anesthetized rats
Procedure: fervescence activity by intravenous injection Test animals were Wister male rats (8 weeks old) weighing 200±10 g. The rats were applied to anesthesia by intraperitoneal injection of 1.25 g/kg of urethane. Each test drug was dissolved into ethyl alcohol. The ethyl alcohol solution was diluted with Ringer's solution at least 50 times just before use and 1 mg/kg of the each test drug was intravenously administered. Body temperature was measured in the same manner as in Example 1. Ringer's solution containing ethyl alcohol was administered as control. Rising of body temperature is shown by the rising degree (°C.) from the temperature before administration.

[3] = fervescence activity by intracerebroventricular injection (rising of body temperature); assay type: in vivo, Wister male rats; settings: 400 ng in 3 μl into lateral ventricle, urethane-anesthetized rats, rectal temperature
Procedure: fervescence activity by intracerebroventricular injection
Wister male rats (8 weeks old) were used as test animals.
Rats were applied to anesthesia by intraperitoneal injection with 1.25 g/kg of urethane and a stainless guide cannula was inserted into the lateral ventricle for administration of a test drug according to Pellegrino's Rat brain atras.
Each test drug was dissolved into an artificial cerebrospinal fluid and 400 ng as drug in 3 μl was injected through the injection cannula for 15 seconds. The artificial cerebrospinal fluid alone was injected as control. Body temperature was measured continuously at the rectum. Rising of body temperature is shown by the rising degree (°C.) from the temperature before administration.

acute toxicity (LD50) = settings: mouse, in vivo; mice, intravenous injection
Excerpt: Acute toxicity (LD50) of the test drugs was estimated on Slc-ddY female mice (5-weeks old) by an intravenous injection.

[4] = sedation activity and rising of body temperature in dog; assay type: in vivo, hybrid adult dog; settings: intravenous
Excerpt: Sedation Activity A 19-methyl type compound having strong fervescence activity was compared with PGE2 […] sedation activity. A hybrid adult dog was held on a holder for dog and intravenously administered with a test drug dissolved in Ringer's solutions at the forefoot. Sedation activity was judged as follows: Sedation Degree 1: Disappearance of body movement 2: Closing of the eyes 3: Leaning on the holding belt

[5] = fervescence (recovery of body temperature) activity at hemorrhage load; assay type: in vivo, Wister male rats; settings: rat loaded with hemorrhage
Procedure: fervescence (recovery of body temperature) activity at hemorrhage load
Wister male rats (weight: 200 g) were subcutaneously injected on the back with 1.5 g/kg of urethane, subjected to anesthesia. Hemorrhage was then induced by withdrawal of blood by puncture of the heart for the total volume of 3 ml equivalent to 1.5% of the body weight. After kept in a room for 60 minutes, the rats were administered intravenously with test solutions prepared by dissolving test drugs into Ringer's solution so as to administer the rat at a dose of 0.5 or 1 mg/kg, and change of the body temperature was observed. Ringer's solution was administered as control.
In the figures, (1), (2) and (3) correspond to the results of administration of doses 1 mg/kg, 0.5 mg/kg and Ringer's solution alone, respectively.

[6] = fervescence activity by intravenous injection (rising of body temperature), 5 mg/kg; assay type: in vivo, Wister male rats; settings: 5 mg/kg intravenous, urethane-anesthetized rats
Procedure: Test animals were Wister male rats (8 weeks old) weighing 200±10 g. The rats were applied to anesthesia by intraperitoneal injection of 1.25 g/kg of urethane. Each test drug was dissolved into ethyl alcohol. The ethyl alcohol solution was diluted with Ringer's solution at least 50 times just before use and 1 mg/kg of the each test drug was intravenously administered. Body temperature was measured in the same manner as in Example 1.
Ringer's solution containing ethyl alcohol was administered as control. Rising of body temperature is shown by the rising degree (°C.) from the temperature before administration.
Experiment was carried out in the same manner as in Example 2 except for that test drugs were administered intravenously with a dose of 5 mg/kg.

| SMILES | Rising of Body Temperature [2] | Rising of Body Temperature [3] | LD50 (acute toxicity (LD50)) [mg/kg] | Rising of Body Temperature [6] | other results |
| --- | --- | --- | --- | --- | --- |
| CCCCC[C@H](O)/C=C/[C@H]1[C@H](O)CC(=O)[C@@H]1C/C=C\CCCC(=O)O [Test drug 58, PGE2] |  |  |  |  | blood pressure (known) [1]: strongly decreases the blood pressure; fervescence activity (known) [1]: known to have fervescence activity |
| CCCCCC(=O)CC[C@H]1[C@H](O)CC(=O)[C@@H]1CCCCCCC(=O)OCC [compound 2] | +0.9 °C | +0.4 °C | > 1000 |  |  |
| CCOC(=O)CCCCC(=O)C[C@H]1C(=O)C[C@@H](O)[C@@H]1CCC(=O)CCCC(C)C [compound 16] | +0.8 °C |  | > 300 |  | Rising of Body Temperature ([4]; 0.5 mg/kg): 1.1 °C; Rising of Body Temperature ([5]; 0.5 mg/kg intravenous): +0.4 °C; Rising of Body Temperature ([5]; 1 mg/kg intravenous): +0.6 °C |
| CCCCCC(=O)CC[C@H]1[C@H](O)CC(=O)[C@@H]1C/C=C\CCCC(=O)OC [compound 23] | +1.0 °C | +0.4 °C | > 1000 |  |  |
| CCCCCC(=O)CC[C@H]1[C@H](O)CC(=O)[C@@H]1C/C=C\CCCC(=O)OCC [compound 24] | +0.5 °C | +0.5 °C | 1000 |  | Rising of Body Temperature ([5]; 0.5 mg/kg intravenous): +0.8 °C; Rising of Body Temperature ([5]; 1 mg/kg intravenous): +1.1 °C |
| CCCCCC(=O)CC[C@H]1[C@H](O)CC(=O)[C@@H]1C/C=C\CCCC(=O)OCCC [compound 25] | +0.2 °C |  |  | +1.3 °C |  |
| CCCCCC(=O)CC[C@H]1[C@H](O)CC(=O)[C@@H]1C/C=C\CCCC(=O)OCCCC [compound 26] | +0.2 °C | +0.1 °C |  | +0.9 °C |  |
| CCCCC[C@H](O)/C=C/[C@H]1[C@H](O)CC(=O)[C@@H]1C/C=C\CCCC(=O)OC [compound 59] | +1.2 °C |  |  |  | Rising of Body Temperature ([4]; 0.01 mg/kg): 0.4 °C |
| CCOC(=O)CCCCC(=O)C[C@H]1C(=O)C[C@@H](O)[C@@H]1/C=C/C(=O)CCCC(C)C [compound 62] |  |  |  | +0.63 °C |  |
